PubChem BioAssay AID328 (DTP/NCI, 2004)
Where “and” joins values, the source holds several entries; their conditions need not be identical. Equal values may be shown once. Inconclusive results and toxic doses are left out.

System: BDF1 mice, P388 leukemia ip, median survival T/C
Assay: NCI In Vivo Anticancer Drug Screen. Data for tumor model P388 Leukemia (intraperitoneal) in B6D2F1 (BDF1) mice
Settings: endpoint: median survival time, higher = longer survival
How it was run: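 Steps: implant the tumour, treat one group with compound and another with vehicle, record survival, then divide treated by control.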

[1] = dose: 50.0 mg/kg/injection, schedule: Q01DX009 (ip), vehicle: saline with Tween-80
[2] = dose: 100.0 mg/kg/injection, schedule: Q01DX009 (ip), vehicle: saline with Tween-80
[3] = dose: 200.0 mg/kg/injection, schedule: Q01DX009 (ip), vehicle: saline with Tween-80
[4] = dose: 50.0 mg/kg/injection, schedule: Q04DX003 (ip), vehicle: saline with Tween-80
[5] = dose: 100.0 mg/kg/injection, schedule: Q04DX003 (ip), vehicle: saline with Tween-80
[6] = dose: 100.0 mg/kg/injection, schedule: Q01DX009 (ip), vehicle: saline
[7] = dose: 100.0 mg/kg/injection, schedule: Q04DX003 (ip), vehicle: saline
[8] = dose: 200.0 mg/kg/injection, schedule: Q04DX003 (ip), vehicle: saline
[9] = dose: 50.0 mg/kg/injection, schedule: Q04DX003 (ip), vehicle: saline
[10] = dose: 50.0 mg/kg/injection, schedule: Q01DX009 (ip), vehicle: other
[11] = dose: 100.0 mg/kg/injection, schedule: Q01DX009 (ip), vehicle: other
[12] = dose: 200.0 mg/kg/injection, schedule: Q01DX009 (ip), vehicle: other
[13] = dose: 100.0 mg/kg/injection, schedule: Q01DX001 (ip), vehicle: Klucel (hydroxypropylcellulose) (HPC)
[14] = dose: 200.0 mg/kg/injection, schedule: Q01DX001 (ip), vehicle: Klucel (hydroxypropylcellulose) (HPC)

Compound: CN(C(=N)N)c1ccc(C(=O)Oc2ccc([N+](=O)[O-])cc2)cc1
- T/C (dose: 12.5 mg/kg/injection, schedule: Q01DX009 (ip), vehicle: water): 100 % of control
- T/C (dose: 18.75 mg/kg/injection, schedule: Q04DX003 (ip), vehicle: water): 104 % of control
- T/C (dose: 25.0 mg/kg/injection, schedule: Q01DX009 (ip), vehicle: water): 100 % of control
- T/C (dose: 37.5 mg/kg/injection, schedule: Q04DX003 (ip), vehicle: water): 109 % of control
- T/C (dose: 50.0 mg/kg/injection, schedule: Q01DX009 (ip), vehicle: water): 108 % of control
- T/C (dose: 75.0 mg/kg/injection, schedule: Q04DX003 (ip), vehicle: water): 104 % of control and 117 % of control
- T/C (dose: 100.0 mg/kg/injection, schedule: Q01DX009 (ip), vehicle: water): 104 % of control
- T/C (dose: 100.0 mg/kg/injection, schedule: Q04DX003 (ip), vehicle: water): 99 % of control
- T/C (dose: 150.0 mg/kg/injection, schedule: Q04DX003 (ip), vehicle: water): 117 % of control
- T/C (dose: 200.0 mg/kg/injection, schedule: Q04DX003 (ip), vehicle: water): 89 % of control
- T/C (dose: 400.0 mg/kg/injection, schedule: Q04DX003 (ip), vehicle: water): 89 % of control

Compound: O=S1(=O)CCCO1
- T/C [1]: 95 % of control
- T/C [2]: 113 % of control

Compound: c1ccc2c(c1)CC1C2ON2CCc3ccccc3C12 (configuration not stated)
- T/C [2]: 91 % of control
- T/C [3]: 97 % of control
- T/C (dose: 400.0 mg/kg/injection, schedule: Q01DX009 (ip), vehicle: saline with Tween-80): 109 % of control

Compound: CC(C)C(OCc1ccccc1)C(=O)O (configuration not stated)
- T/C [4]: 100 % of control
- T/C [5]: 108 % of control
- T/C (dose: 200.0 mg/kg/injection, schedule: Q04DX003 (ip), vehicle: saline with Tween-80): 108 % of control
- T/C (dose: 400.0 mg/kg/injection, schedule: Q04DX003 (ip), vehicle: saline with Tween-80): 108 % of control

Compound: c1c2c(cc3c1OC1=C(CCCCCCCCCC1)C3)OC1=C(CCCCCCCCCC1)C2
- T/C [1]: 102 % of control
- T/C [2]: 100 % of control
- T/C [3]: 86 % of control

Compound: CC(C)N(C)Cc1ccccc1Sc1ccccc1CN(C)C(C)C
- T/C (dose: 100.0 mg/kg/injection, schedule: Q01DX001 (ip), vehicle: other): 108 % of control
- T/C (dose: 200.0 mg/kg/injection, schedule: Q01DX001 (ip), vehicle: other): 107 % of control
- T/C (dose: 400.0 mg/kg/injection, schedule: Q01DX001 (ip), vehicle: other): 97 % of control

Compound: O=C1c2cccc3cc([N+](=O)[O-])cc(c23)C(=O)N1CCN1CCCC1
- T/C (dose: 6.25 mg/kg/injection, schedule: Q01DX009 (ip), vehicle: saline with Tween-80): 157 % of control
- T/C (dose: 12.5 mg/kg/injection, schedule: Q01DX009 (ip), vehicle: saline with Tween-80): 177 % of control

Compound: O=C(O)COCC(F)(F)C(F)(F)C(F)(F)COCC(=O)O
- T/C (dose: 50.0 mg/kg/injection, schedule: Q01DX009 (ip), vehicle: saline): 90 % of control
- T/C [6]: 110 % of control
- T/C [7]: 100 % of control
- T/C (dose: 200.0 mg/kg/injection, schedule: Q01DX009 (ip), vehicle: saline): 110 % of control
- T/C [8]: 122 % of control

Compound: O=C(O)CNCc1ccc(F)cc1
- T/C [9]: 111 % of control
- T/C [7]: 120 % of control
- T/C [8]: 115 % of control

Compound: CC(=O)N(CCN(Cc1ccc(Oc2ccc([N+](=O)[O-])cc2[N+](=O)[O-])cc1)C(C)=O)CCN(Cc1ccc(Oc2ccc([N+](=O)[O-])cc2[N+](=O)[O-])cc1)C(C)=O
- T/C (dose: 25.0 mg/kg/injection, schedule: Q01DX009 (ip), vehicle: other): 94 % of control
- T/C [10]: 103 % of control
- T/C [11]: 100 % of control
- T/C [12]: 94 % of control
- T/C (dose: 400.0 mg/kg/injection, schedule: Q01DX009 (ip), vehicle: other): 103 % of control

Compound: O=C(CN1C(=O)c2ccccc2C1=O)c1ccc(C(F)(F)F)cc1
- T/C (dose: 50.0 mg/kg/injection, schedule: Q01DX001 (ip), vehicle: Klucel (hydroxypropylcellulose) (HPC)): 96 % of control
- T/C [13]: 105 % of control
- T/C [14]: 88 % of control

Compound: CCN(CC)CCNc1ccc(C)c2sc3ccccc3c(=O)c12
- T/C (dose: 12.5 mg/kg/injection, schedule: Q01DX009 (ip), vehicle: saline): 97 % of control
- T/C (dose: 25.0 mg/kg/injection, schedule: Q01DX009 (ip), vehicle: saline): 109 % of control
- T/C (dose: 50.0 mg/kg/injection, schedule: Q01DX010 (ip), vehicle: saline): 150 % of control and 170 % of control
- T/C [6]: 158 % of control
- T/C (dose: 100.0 mg/kg/injection, schedule: Q01DX010 (ip), vehicle: saline): 90 % of control

Compound: COB(C1CCCCC1)C1CCCCC1
- T/C (dose: 75.0 mg/kg/injection, schedule: Q01DX001 (ip), vehicle: saline): 113 % of control
- T/C (dose: 150.0 mg/kg/injection, schedule: Q01DX001 (ip), vehicle: saline): 104 % of control
- T/C (dose: 300.0 mg/kg/injection, schedule: Q01DX001 (ip), vehicle: saline): 95 % of control

Compound: C(=C/c1nc2ccccc2o1)/c1ccc2c(c1)OCO2
- T/C (dose: 50.0 mg/kg/injection, schedule: Q01DX011 (ip), vehicle: Klucel (hydroxypropylcellulose) (HPC)): 102 % of control
- T/C [13]: 100 % of control
- T/C (dose: 100.0 mg/kg/injection, schedule: Q01DX011 (ip), vehicle: Klucel (hydroxypropylcellulose) (HPC)): 99 % of control
- T/C [14]: 86 % of control
- T/C (dose: 200.0 mg/kg/injection, schedule: Q01DX011 (ip), vehicle: Klucel (hydroxypropylcellulose) (HPC)): 100 % of control
- T/C (dose: 400.0 mg/kg/injection, schedule: Q01DX001 (ip), vehicle: Klucel (hydroxypropylcellulose) (HPC)): 94 % of control

Compound: O=S(=O)(O)c1ccc(Nc2ccccc2)cc1
- T/C (dose: 100.0 mg/kg/injection, schedule: Q01DX009 (ip), vehicle: Klucel (hydroxypropylcellulose) (HPC)): 100 % of control
- T/C (dose: 400.0 mg/kg/injection, schedule: Q01DX009 (ip), vehicle: Klucel (hydroxypropylcellulose) (HPC)): 104 % of control

Compound: O=c1[nH]c(=O)c2cccnc2[nH]1
- T/C (dose: 25.0 mg/kg/injection, schedule: Q01DX009 (ip), vehicle: saline sonified): 100 % of control
- T/C (dose: 50.0 mg/kg/injection, schedule: Q01DX009 (ip), vehicle: saline sonified): 100 % of control
- T/C (dose: 100.0 mg/kg/injection, schedule: Q01DX009 (ip), vehicle: saline sonified): 94 % of control

Compound: O=C(NC(=O)c1c(F)cccc1F)Nc1ccc2[nH]ccc2c1
- T/C (dose: 25.0 mg/kg/injection, schedule: Q01DX009 (ip), vehicle: saline with Tween-80): 100 % of control
- T/C [1]: 100 % of control
- T/C [2]: 93 % of control

Compound: CC(=O)OCC(OC(C)=O)C(OC(C)=O)C(C#N)OC(C)=O (configuration not stated)
- T/C [4]: 95 % of control
- T/C [5]: 95 % of control

Compound: OCc1ccccc1[S+]1OCc2ccccc21 (configuration not stated)
- T/C [10]: 104 % of control
- T/C [11]: 97 % of control
- T/C [12]: 108 % of control

Compound: CCCCCCCCC1SC1CCCCCCCC(=O)OCCOCCOCC (configuration not stated)
- T/C [7]: 88 % of control
- T/C [8]: 88 % of control
- T/C (dose: 400.0 mg/kg/injection, schedule: Q04DX003 (ip), vehicle: saline): 92 % of control

Compound: CN(C)[C@@H]1C(=O)C(C(=O)NCNC(CO)(CO)CO)=C(O)[C@@]2(O)C(=O)C3=C(O)c4c(O)cccc4[C@@](C)(O)[C@H]3C[C@@H]12
- T/C (dose: 25.0 mg/kg/injection, schedule: Q04DX003 (ip), vehicle: saline): 100 % of control
- T/C [9]: 95 % of control
- T/C [7]: 90 % of control
- T/C [8]: 104 % of control

Compound: CC(C)(C)[Si](C)(C)OC(=O)NCCCl
- T/C (dose: 100.0 mg/kg/injection, schedule: Q04DX002 (ip), vehicle: saline with Tween-80): 100 % of control
- T/C (dose: 200.0 mg/kg/injection, schedule: Q04DX002 (ip), vehicle: saline with Tween-80): 109 % of control
- T/C (dose: 400.0 mg/kg/injection, schedule: Q04DX002 (ip), vehicle: saline with Tween-80): 118 % of control

Compound: Cc1nnc(NS(=O)(=O)c2ccc(N=Nc3nc4[nH]c(N)nc(=S)c4[nH]3)cc2)s1
- T/C (dose: 5.5 mg/kg/injection, schedule: Q01DX009 (ip), vehicle: saline): 114 % of control
- T/C (dose: 12.5 mg/kg/injection, schedule: Q04DX003 (ip), vehicle: Klucel (hydroxypropylcellulose) (HPC)): 95 % of control
- T/C (dose: 25.0 mg/kg/injection, schedule: Q04DX003 (ip), vehicle: Klucel (hydroxypropylcellulose) (HPC)): 104 % of control
- T/C (dose: 50.0 mg/kg/injection, schedule: Q04DX003 (ip), vehicle: Klucel (hydroxypropylcellulose) (HPC)): 100 % of control
- T/C (dose: 80.0 mg/kg/injection, schedule: Q01DX009 (ip), vehicle: Klucel (hydroxypropylcellulose) (HPC)): 155 % of control
- T/C (dose: 170.0 mg/kg/injection, schedule: Q01DX009 (ip), vehicle: saline): 172 % of control
